# Measured values published in paper PMC8304634, “Structure–Activity Relationships of the Antimalarial Agent Artemisinin 10. Synthesis and Antimalarial Activity of Enantiomers of rac-5β-Hydroxy-D-Secoartemisinin and Analogs: Implications Regarding the Mechanism of Action” (Molecules, 2021).
# Entries after “also recorded” stand apart in the source; their conditions may differ.
# What was measured:
# [1] = test system: P. falciparum Sierra Leone (D-6) clone; test: In vitro antimalarial pLDH assay, D-6 clone; type: cell-based; conditions: for IC50 (ng/mL) D-6 / IC50: parasitized red blood cells, 72 h, pLDH readout, NA = Not active; for IC50: Plasmodium falciparum, Erythrocyte, read-out: IC50 (ng/mL) D-6
# Procedure: (§1) Artemisinin 1 and the analogs rac-2, 2a, 2b, 9–16, diastereomers 19a, 19b, 22 and 29 were tested in vitro in parasitized whole blood against drug-resistant strains of P. falciparum parasite clones D-6 and W-2 at The National Center for Natural Products Research (NCNPR) at The University of Mississippi using the parasite lactate dehydrogenase (pLDH) assay developed by Makler (Table 3). This assay is based on the ability of the pLDH enzyme of P. falciparum to reduce APAD to APADH. This reaction is carried out at a slow rate by human red blood cell LDH.
# (§2) The formation of APADH was monitored colorimetrically by the addition of nitroblue tetrazolium which was reduced to a blue formazan product. Two P. falciparum malaria parasite clones, designated as Indochina (W-2) and Sierra Leone (D-6), were used in susceptibility testing. The W-2 clone is chloroquine-resistant and mefloquine-sensitive, while the D-6 clone is chloroquine-sensitive but mefloquine resistant. The relative potency values for these analogs were derived from the IC50 value for artemisinin (1) divided by their IC50 values (Table 3) and then adjusted for molecular weight differences by multiplication of the ratio of the molecular weight of the analog divided by the molecular weight of artemisinin. This approach to reporting activity was based in part on the fact that the analogs were tested on different occasions in which the IC50 for the control, artemisinin, had varied anywhere from 5 to 7 ng/mL based on parasitemia levels and clone.
# (§3) Synthesized compounds were tested in vitro against two P. falciparum malaria parasite clones, designated as Indochina (W-2) and Sierra Leone (D-6). The W-2 clone is chloroquine resistant whereas the D-6 clone is a chloroquine-sensitive strain.
# (§4) A suspension of red blood cells infected with W-2 or D-6 strain of P. falciparum that contains 2% parasitemia and 2% hematocrit in RPMI 1640 medium supplemented with 10% human serum and 60 µg/mL amikacin was dispensed into the wells of a 96-well flat-bottomed microtiter plate containing 10 µL of serially diluted test samples. The plates were incubated at 37 °C in an environment of 90% N2, 5% O2, and 5% CO2 for 72 h. Next, 100 µL aliquots of the Malstat reagent were added to each well of a new 96-well microtiter plate. The cultures were resuspended from the assay plate by mixing each well up and down several times. A total of 20 µL from each well of the resuspended culture was removed and added to the plate containing the Malstat reagent and the plate was incubated at r.t., for 30 min. Further, to each well, 20 µL of a NBT/PES (1:1) solution (2 and 0.1 mg/mL, respectively) were added. The plate was incubated in the dark for 1 h. The reaction was terminated by the addition of 100 µL of a 5% acetic acid solution. The […] plate was then read at 650 nm. Artemisinin and chloroquine were included in each assay as antimalarial drug controls. The IC50 values were computed from the dose–response curves using XLfit 4.2.
# [2] = test system: P. falciparum Indochina (W-2) clone; test: In vitro antimalarial pLDH assay, W-2 clone; type: cell-based; conditions: for IC50 (ng/mL) W-2 / IC50: parasitized red blood cells, 72 h, pLDH readout, NA = Not active; for IC50: Plasmodium falciparum, Erythrocyte, read-out: IC50 (ng/mL) W-2
# Procedure: as §1, §2, §3, §4
# P. falciparum = test: In vitro antimalarial pLDH assay, clone not distinguished in the statement; type: cell-based; conditions: for in vitro antimalarial activity (in words): W-2 and D-6 strains
# Procedure: as §1, §2, §3, §4
# [3] = 100 × [IC50 (artemisinin, control value)/IC50 (analog)] MW (analog)/MW(artemisinin)
# [4] = as quoted in the Discussion, relative to artemisinin
IC50 (ng/mL) D-6 [1],IC50 (ng/mL) W-2 [2],melting point,IC50 [1],IC50 [2],"IC50 (P. falciparum; Plasmodium falciparum, varied between test occasions, based on parasitemia levels and clone, read-out: IC50 for the control, artemisinin)",Structure (SMILES),"Relative Activity D-6 [1, 3]","Relative Activity W-2 [2, 3]",in vitro antimalarial activity (in words) (P. falciparum),times more potent than the alcohol rac-2 or 2a (P. falciparum; fold potency versus rac-2 or 2a),"Relative Activity D-6 [1, 4]","Relative Activity W-2 [2, 4]"
150.64 ng/mL,357.24 ng/mL,,,,,"COC(C(=O)OC1CC2(C)OCC3(CCCCC13)OO2)(c1ccccc1)C(F)(F)F [Compound 19a, (3R,5R,5aR,9aS)-3-methyloctahydro-1H-3,9a-epidioxybenzo[c]oxepin-5-yl(R)-3,3,3-trifluoro-2-methoxy-2-phenylpropanoate]",7.13,2.17,,,,
,,123 to 125 °C,,,,"CC(=O)OCC12CCCCC1C(O)CO2 (stereo not shown) [Compound 22, (3-Hydroxyhexahydrobenzofuran-7a(2H)-yl)methyl acetate]",,,Neither 22 nor 29 possessed in vitro antimalarial activity; also recorded: no antimalarial activity,,,
,,155 to 157 °C,115 ng/mL,167 ng/mL,,"COc1ccc(C(=O)OC2CC3(C)OCC4(CCCCC24)OO3)cc1 (stereo not shown) [Compound 12, 3-Methyloctahydro-1H-3,9a-epidioxybenzo[c]oxepin-5-yl 4-methoxybenzoate]",15.13,7.50,,,,
,,,31.8 ng/mL,23.3 ng/mL,,"CC12CC(=O)C3CCCCC3(CO1)OO2 (stereo not shown) [Compound 15, 3-Methylhexahydro-1H-3,9a-epidioxybenzo[c]oxepin-5(5aH)-one]",33.30,32.72,substantially improved over the corresponding alcohol 2,55–77,33.30%,32.72%
,,108 to 110 °C,1260 ng/mL,885 ng/mL,,"C[C@@]12C[C@@H](O)[C@H]3CCCC[C@]3(CO1)OO2 [Compound 2a, (3R,5R,5aR,9aS)-3-methyloctahydro-1H-3,9a-epidioxybenzo[c]oxepin-5-ol]",0.43,0.44,Antimalarial activity resided with only the artemisinin-like enantiomer; also recorded: the only alcohol of the pair with antimalarial activity,,0.43%,0.44%
,,,345 ng/mL,346 ng/mL,,C=C1CC2(C)OCC3(CCCCC13)OO2 (stereo not shown) [Compound 16],3.05,2.18,,,,
,,,149 ng/mL,209 ng/mL,,"CCCCC(=O)OC1CC2(C)OCC3(CCCCC13)OO2 (stereo not shown) [Compound 9, 3-Methyloctahydro-1H-3,9a-epidioxybenzo[c]oxepin-5-yl pentanoate]",5.00,2.60,,,,
2169.31 ng/mL,2255.40 ng/mL,,,,,"COC(C(=O)OC1CC2(C)OCC3(CCCCC13)OO2)(c1ccccc1)C(F)(F)F [Compound 19b, (3S,5S,5aS,9aR)-3-methyloctahydro-1H-3,9a-epidioxybenzo[c]oxepin-5-yl(R)-3,3,3-trifluoro-2-methoxy-2-phenylpropanoate]",0.50,0.34,,,0.50%,0.34%
,,100 to 102 °C,153 ng/mL,121 ng/mL,,"CC12CC(OC(=O)c3ccccc3)C3CCCCC3(CO1)OO2 (stereo not shown) [Compound 10, 3-Methyloctahydro-1H-3,9a-epidioxybenzo[c]oxepin-5-yl benzoate]",10.40,9.50,,,,
,,,,,,"CC(=O)OCC1(O)CCCCC1C(C)=O (stereo not shown) [Compound 29, (2-Acetyl-1-hydroxycyclohexyl)methyl acetate]",,,Neither 22 nor 29 possessed in vitro antimalarial activity; also recorded: no antimalarial activity,,,
,,,131 ng/mL,148 ng/mL,,"CC12CC(OC(=O)C=Cc3ccccc3)C3CCCCC3(CO1)OO2 (stereo not shown) [Compound 13, 3-Methyloctahydro-1H-3,9a-epidioxybenzo[c]oxepin-5-yl cinnamate]",13.14,8.37,,,,
,,,7.05 ng/mL,5.08 ng/mL,0.005 to 0.007 µg/mL,"C[C@@H]1CC[C@H]2[C@@H](C)C(=O)O[C@@H]3O[C@@]4(C)CC[C@@H]1[C@]32OO4 [Compound 1, Artemisinin]",100,100,,,,
,,110 to 112 °C,145 ng/mL,120 ng/mL,,"CC12CC(OC(=O)c3ccc(Cl)cc3)C3CCCCC3(CO1)OO2 (stereo not shown) [Compound 14, 3-Methyloctahydro-1H-3,9a-epidioxybenzo[c]oxepin-5-yl 4-chlorobenzoate]",12.18,10.58,,,,
,,109 to 111 °C,1720 ng/mL,1780 ng/mL,,"CC12CC(O)C3CCCCC3(CO1)OO2 (racemic) [rac-2, 3-Methyloctahydro-1h-3,9a-epidioxybenzo[c]oxepin-5-ol]",,0.43,,,0.62%,0.43%
,,107 to 109 °C,,,,"C[C@]12C[C@H](O)[C@@H]3CCCC[C@@]3(CO1)OO2 [Compound 2b, (3S,5S,5aS,9aR)-3-methyloctahydro-1H-3,9a-epidioxybenzo[c]oxepin-5-ol]",,,devoid of antimalarial activity,,,
,,88 to 90 °C,80.7 ng/mL,97.5 ng/mL,,"CC12CC(OC(=O)c3ccc(F)cc3)C3CCCCC3(CO1)OO2 (stereo not shown) [Compound 11, 3-Methyloctahydro-1H-3,9a-epidioxybenzo[c]oxepin-5-yl 4-fluorobenzoate]",20.81,12.41,,,20.81%,12.41%
